Data taken from patent US5935829A, “Mutation assays involving blood cells that metabolize toxic substances” (priority 1992, dated 1999).
Where two headings read alike, the source gives them in different places.

How the values were obtained:
AHH-1 cells [1] = test system: AHH-1 cells
in vitro = conditions: human, ahh-1 cells, RELATIVE SURVIVAL; for viability at 48 h, 25 µM: 25 μM × 48 hours; for viability at 48 h, 50 µM: 50 μM × 48 hours; for viability at 48 h, 100 µM: 100 μM × 48 hours
[2] = test system: 6-TG resistant AHH-1 cells
AHH-1 cells [3] = assay: Cell clumping at concentrations of 6-TG in microtiter wells; type: cell-based, human
Protocol: When applied at relatively high concentrations to a colony of cells, 6-thioguanine (6-TG) causes the cells to clump together, rendering it difficult or impossible for live mutant cells to survive and create colonies. […] […]. Subsequent routine work was done using 0.5 μg/ml of 6-TG.

[4] = test system: 6-TG resistant AHH-1 clones; assay: Plating efficiency of clones resistant to 6-TG; type: cell-based, human; conditions: for Plating Efficiency with 6-TG & 2000 c/w: with 2000 wild type cells per well
wild type AHH-1 cells = assay: Plating efficiency of wild type cells with 6-TG; type: cell-based, human
[5] = test system: AHH activity of AHH-1 cells; type: cell-based, human
Protocol: The quantity of 3-hydroxy BaP was measured by fluorescent intensity activated by a light wavelength of 396 nm and measured at 522 nm using a spectrofluorimeter (Farrand Model Mk-1, Valhalla, N.Y.).
After growth of the cells in culture medium with gentamycin and kanamycin, the cells were plated in microtiter plates at a density of about 0.2 cells per well. Colonies were isolated and characterized for BaP-induced growth inhibition. A total of 47 colonies were isolated and contacted with 40 uM BaP. In its normal state, BaP is not highly cytotoxic or mutagenic; however, if metabolized by oxidative activity into one or more epoxides or phenols, the metabolites tend to be toxic and mutagenic.
6-TG resistant clones were characterized for AHH activity by measuring the rate of production of 3-OH benzopyrene, a fluorescent metabolite of BaP which is created by AHH activity.

[6] = 25 μM × 48 hours, induction none
[7] = 50 μM × 48 hours, induction none
[8] = 100 μM × 48 hours, induction none
[9] = 75 μM × 48 hours, induction none
[10] = 1 μM × 48 hours, induction CEPE
[11] = 3 μM × 48 hours, induction CEPE
[12] = 10 μM × 48 hours, induction CEPE
[13] = 25 μM × 4.8 hours, induction CEPE

SMILES: Cc1cccc2c1ccc1ccccc12 [1MP, 1-methylphenanthrene]
- MUTANT FRACTION × 10^6, MEAN ± STD.DEV. (AHH-1 cells [1]; 25 μM × 48 hours, induction BNF): 3.6 ± 1.2 × 10^6
- MUTANT FRACTION × 10^6, MEAN ± STD.DEV. (AHH-1 cells [1]; [6]): 4.4 ± 1.2 × 10^6
- MUTANT FRACTION × 10^6, MEAN ± STD.DEV. (AHH-1 cells [1]; 50 μM × 48 hours, induction BNF): 8.9 ± 1.5 × 10^6
- MUTANT FRACTION × 10^6, MEAN ± STD.DEV. (AHH-1 cells [1]; [7]): 4.1 ± 1.2 × 10^6
- MUTANT FRACTION × 10^6, MEAN ± STD.DEV. (AHH-1 cells [1]; 100 μM × 48 hours, induction BNF): 7.8 ± 1.4 × 10^6
- MUTANT FRACTION × 10^6, MEAN ± STD.DEV. (AHH-1 cells [1]; [8]): 7.8 ± 1.1 × 10^6
- viability at 48 h, 25 µM (in vitro; induction BNF): 47%
- viability at 48 h, 25 µM (in vitro; induction none): 54%
- viability at 48 h, 50 µM (in vitro; induction BNF): 35%
- viability at 48 h, 50 µM (in vitro; induction none): 38%
- viability at 48 h, 100 µM (in vitro; induction BNF): 29%
- viability at 48 h, 100 µM (in vitro; induction none): 31%

SMILES: CC(=O)Nc1ccc2c(c1)Cc1ccccc1-2 [2AAF, 2-acetoaminofluorene]
- MUTANT FRACTION × 10^6, MEAN ± STD.DEV. (AHH-1 cells [1]; [6]): 4.8 ± 1.2 × 10^6
- MUTANT FRACTION × 10^6, MEAN ± STD.DEV. (AHH-1 cells [1]; [7]): 3.8 ± 1.1 × 10^6
- MUTANT FRACTION × 10^6, MEAN ± STD.DEV. (AHH-1 cells [1]; [9]): 6.9 ± 1.7 × 10^6
- MUTANT FRACTION × 10^6, MEAN ± STD.DEV. (AHH-1 cells [1]; [8]): 7.7 ± 0.7 × 10^6
- viability at 48 h, 25 µM (in vitro; induction none): 73%
- viability at 48 h, 50 µM (in vitro; induction none): 50%
- viability at 48 h, 75 µM (in vitro; [9]): 37%
- viability at 48 h, 100 µM (in vitro; induction none): 33%

SMILES: Nc1nc2nc[nH]c2c(=S)[nH]1 [6-TG, 6-thioguanine]
- sensitivity to toxic effects of 6-TG ([2]; 6-TG resistant mutant AHH-1 population, up to 5 μg/ml, about two cells per well): not sensitive
- growth rates with and without 6-TG ([2]; seven 6-TG resistant clones): comparable growth rates
- cells per microtiter well that could be assayed (AHH-1 cells [3]; 0.5 μg/ml 6-TG): ≥ 20,000 cells per microtiter well
- cells per microtiter well that could be assayed without clumping (AHH-1 cells [3]; 5 μg/ml 6-TG): about 2,000 cells per microtiter well
- Plating Efficiency in 5 μg/ml 6-TG at 2 cells/well ([4]; clone BP-3): 0.24
- Plating Efficiency with 6-TG & 2000 c/w ([4]; clone BP-3): 0.23
- Plating Efficiency in 5 μg/ml 6-TG at 2 cells/well ([4]; clone BP-4): 0.34
- Plating Efficiency with 6-TG & 2000 c/w ([4]; clone BP-4): 0.34
- Plating Efficiency in 5 μg/ml 6-TG at 2 cells/well ([4]; clone BP-5): 0.21
- Plating Efficiency with 6-TG & 2000 c/w ([4]; clone BP-5): 0.20
- Plating Efficiency in 5 μg/ml 6-TG at 2 cells/well ([4]; clone BP-6): 0.26
- Plating Efficiency with 6-TG & 2000 c/w ([4]; clone BP-6): 0.34
- Plating Efficiency in 5 μg/ml 6-TG at 2 cells/well ([4]; clone BP-7): 0.06
- Plating Efficiency with 6-TG & 2000 c/w ([4]; clone BP-7): 0.07
- Plating Efficiency in 5 μg/ml 6-TG at 2 cells/well (wild type AHH-1 cells): < 10^-3
- Plating Efficiency with 6-TG & 2000 c/w (wild type AHH-1 cells; 2000 c/w): 10^-5

SMILES: C1=Cc2cc3cccc4ccc5ccc1c2c5c43 [CEPE, cyclopenteno(c,d)pyrene]
- MUTANT FRACTION × 10^6, MEAN ± STD.DEV. (AHH-1 cells [1]; [10]): 71 ± 6 × 10^6
- MUTANT FRACTION × 10^6, MEAN ± STD.DEV. (AHH-1 cells [1]; [11]): 78 ± 9 × 10^6
- MUTANT FRACTION × 10^6, MEAN ± STD.DEV. (AHH-1 cells [1]; [12]): 22 ± 2 × 10^6
- MUTANT FRACTION × 10^6, MEAN ± STD.DEV. (AHH-1 cells [1]; [13]): 34 ± 4 × 10^6
- MUTANT FRACTION × 10^6, MEAN ± STD.DEV. (AHH-1 cells [1]; 25 μM × 48 hours, induction CEPE & BNF): 74 ± 7 × 10^6
- MUTANT FRACTION × 10^6, MEAN ± STD.DEV. (AHH-1 cells [1]; 50 μM × 48 hours, induction CEPE & BNF): 64 ± 7 × 10^6
- viability at 48 h, 1 µM (in vitro; [10]): 61%
- viability at 48 h, 3 µM (in vitro; [11]): 63%
- viability at 48 h, 10 µM (in vitro; [12]): 59%
- viability at 4.8 h, 25 µM (in vitro; [13]): 54%
- viability at 48 h, 25 µM (in vitro; induction CEPE & BNF): 34%
- viability at 48 h, 50 µM (in vitro; induction CEPE & BNF): 27%
- induction of AHH activity [5]: inducers
